Earlier results in patent publication US20090018020A1, “USE OF COMPOUNDS COMPRISING A POLYSACCHARIDE STRUCTURE AS BIOFERTILISER AND PHYTOSANITARY PRODUCTS” (CENTRE NATIONAL DE LA RECHERCHE SCIENTIFIQUE, priority 2002, published 2009).

Settings: literature (Mc Dougall and Fry 1989, 1990)

Substance	auxinic or antiauxinic effect
XLLG	auxinic effect
XXLG	auxinic effect
